According to publication PMC9779606, “Synthesis, Structural Characterization and Biological Activity Evaluation of Novel Cu(II) Complexes with 3-(trifluoromethyl)phenylthiourea Derivatives” (International Journal of Molecular Sciences, 2022):
≈ marks a conversion by molar mass, not a printed value.

test system: M. tuberculosis Spec. 210; assay: Tuberculostatic activity, Microplate Alamar Blue Assay (MABA); type: cell-based, Mycobacterium tuberculosis; conditions: M. tuberculosis Spec. 210, patient isolate resistant to PAS, INH, ETB, RMP
Description: The synthesized compounds were examined in vitro for their tuberculostatic activity using MABA method (Microplate Alamar Blue Assay method). […] The inoculum was prepared from fresh LJ culture in Middlebrook 7H9 Broth medium with OADC, adjusted to a no. 1 McFarland tube, and diluted 1:20. […] Each test compound stock solution was diluted in Middlebrook 7H9 Broth medium with OADC by fourfold, the final highest concentration to be tested. Compounds were diluted serially in sterile 96-well microtiter plates using 100 μL Middlebrook 7H9 Broth medium with OADC. […] A growth control containing no antibiotic and a sterile control without inoculation were also prepared on each plate. The plates were incubated at 37 °C for a week. After the incubation period, 30 μL of Alamar blue solution was added to each well, and the plate was re-incubated for 24 h. Growth is indicated by a color change from blue to pink and the lowest concentration of compound that prevented the color change was noted as its MIC. Isoniazid (INH), Rifampicin (RMP), Streptomycin (SM), and Ethambutol (EMB) as reference drugs were used for comparison.

In order of rising MIC:
1. FC(F)(F)c1cccc([N-]C(=S)Nc2cccc(Br)c2)c1.FC(F)(F)c1cccc([N-]C(=S)Nc2cccc(Br)c2)c1.[Cu+2] [Cu4, Copper(II) Complex with 1-(3-bromophenyl)-3-[3-(trifluoromethyl)phenyl] thiourea]  4 µg/mL
2. O.O=[N+]([O-])c1cc(NC(=S)[N-]c2cccc(C(F)(F)F)c2)ccc1Cl.O=[N+]([O-])c1cc(NC(=S)[N-]c2cccc(C(F)(F)F)c2)ccc1Cl.[Cu+2] [Cu5, Copper(II) Complex with 1-(4-chloro-3-nitrophenyl)-3-[3-(trifluoromethyl)phenyl]thiourea]  4 µg/mL
3. CC(NC(=S)[N-]c1cccc(C(F)(F)F)c1)c1ccccc1.CC(NC(=S)[N-]c1cccc(C(F)(F)F)c1)c1ccccc1.[Cu+2] (racemic) [Cu2, Copper(II) Complex with 1-(1-phenylethyl)-3-[3-(trifluoromethyl)phenyl]thiourea]  8 µg/mL
4. FC(F)(F)c1cccc([N-]C(=S)NCCc2ccccc2)c1.FC(F)(F)c1cccc([N-]C(=S)NCCc2ccccc2)c1.O.[Cu+2] [Cu1, Copper(II) Complex with 1-(2-phenylethyl)-3-[3-(trifluoromethyl)phenyl]thiourea]  16 µg/mL
5. FC(F)(F)c1cccc([N-]C(=S)NCc2ccccc2)c1.FC(F)(F)c1cccc([N-]C(=S)NCc2ccccc2)c1.[Cu+2] [Cu3, Copper(II) Complex with 1-benzyl-3-[3-(trifluoromethyl)phenyl]thiourea]  16 µg/mL

same assay, conditions: Mycobacterium tuberculosis, M. tuberculosis Spec. 210, patient isolate resistant to PAS, INH, ETB, RMP, read-out: MIC

In order of rising MIC:
1. [H]/N=C(/N)N[C@H]1[C@H](O)[C@@H](O)[C@H](O[C@@H]2O[C@@H](C)[C@](O)(C=O)[C@H]2O[C@@H]2O[C@@H](CO)[C@H](O)[C@@H](O)[C@@H]2NC)[C@@H](N/C(N)=N\[H])[C@@H]1O [Streptomycin (SM), Streptomycin, reference compound]  16 µg/mL (≈ 27.5 µM)
2. NNC(=O)c1ccncc1 [Isoniazid (INH), Isoniazid, reference compound]  16 µg/mL (≈ 117 µM)
3. CO[C@H]1/C=C/O[C@@]2(C)Oc3c(C)c(O)c4c(O)c(c(/C=N/N5CCN(C)CC5)c(O)c4c3C2=O)NC(=O)/C(C)=C\C=C\[C@H](C)[C@H](O)[C@@H](C)[C@@H](O)[C@@H](C)[C@H](OC(C)=O)[C@@H]1C [Rifampicin (RMP), Rifampicin, reference compound]  32 µg/mL (≈ 38.9 µM)
4. CC[C@@H](CO)NCCN[C@@H](CC)CO [Ethambutol (EMB), Ethambutol, reference compound]  32 µg/mL (≈ 157 µM)
